# Test results from US6994868B2, “Compositions useful as inhibitors of ERK” (Vertex Pharmaceuticals Incorporated, priority 2000, dated 2006).
# Molecular target: activated ERK2 (Homo sapiens, UniProt P28482)
# Assay: ERK inhibition assay (spectrophotometric coupled-enzyme assay)
# Type: biochemical
# Conditions: activated ERK2 10 nM, 65 μM ATP, 200 μM erktide peptide, 30° C., pH 7.5; read-out: ERK2 Inhibitory Activity (Ki class)
# activated ERK2, sequence (P28482 whole entry): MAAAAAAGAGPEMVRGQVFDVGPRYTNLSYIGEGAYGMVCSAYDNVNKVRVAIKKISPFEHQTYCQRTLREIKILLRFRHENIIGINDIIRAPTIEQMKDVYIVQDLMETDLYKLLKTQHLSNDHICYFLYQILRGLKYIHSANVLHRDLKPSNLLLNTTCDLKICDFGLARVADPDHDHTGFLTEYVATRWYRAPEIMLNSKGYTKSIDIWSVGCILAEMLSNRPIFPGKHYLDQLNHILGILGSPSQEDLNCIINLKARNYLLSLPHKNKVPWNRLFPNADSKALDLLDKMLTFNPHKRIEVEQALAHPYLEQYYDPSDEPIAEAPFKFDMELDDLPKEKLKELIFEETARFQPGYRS
row,Compound,Ki
1,COc1cccc(-c2cn[nH]c2-c2c[nH]c(C(=O)NCc3ccco3)c2)c1 [II-A-147],1000 to 5000 nM
2,O=C(c1cc(-c2[nH]ncc2-c2ccccc2)c[nH]1)N1CCCC1 [II-A-134],1000 to 5000 nM
3,COc1cccc(-c2cn[nH]c2-c2c[nH]c(C(=O)NCc3cccnc3)c2)c1 [II-A-145],1000 to 5000 nM
4,CC(C)NC(=O)c1cc(-c2[nH]ncc2-c2ccccc2)c[nH]1 [II-A-158],1000 to 5000 nM
5,O=C(NCc1ccccc1)c1cc(-c2[nH]ncc2-c2ccc(F)c(F)c2)c[nH]1 [II-A-85],< 1000 nM
6,COc1cccc(-c2cn[nH]c2-c2c[nH]c(C(=O)N3CCCC3)c2)c1 [II-A-144],1000 to 5000 nM
7,O=C(NCc1ccncc1)c1cc(-c2[nH]ncc2-c2cccc(F)c2)c[nH]1 [II-A-80],< 1000 nM
8,O=C(c1cc(-c2[nH]ncc2-c2ccccc2)c[nH]1)N1CCOCC1 [II-A-150],1000 to 5000 nM
9,O=C(NCc1ccco1)c1cc(-c2[nH]ncc2-c2ccccc2)c[nH]1 [II-A-149],1000 to 5000 nM
10,O=C(NCc1ccccc1)c1cc(-c2[nH]ncc2-c2cccc(Cl)c2F)c[nH]1 [II-A-82],< 1000 nM
11,O=C(NCc1cccnc1)c1cc(-c2[nH]ncc2-c2ccccc2)c[nH]1 [II-A-153],1000 to 5000 nM
12,COc1cccc(-c2cn[nH]c2-c2c[nH]c(C(=O)N(C)C)c2)c1 [II-A-154],1000 to 5000 nM
13,O=C(NCc1ccccc1)c1cc(-c2[nH]ncc2-c2cccc(F)c2F)c[nH]1 [II-A-103],< 1000 nM
14,COc1cccc(-c2cn[nH]c2-c2c[nH]c(C(=O)N3CCC(C)CC3)c2)c1 [II-A-163],> 5000 nM
15,COc1ccccc1CNC(=O)c1cc(-c2[nH]ncc2-c2cccc(F)c2)c[nH]1 [II-A-63],< 1000 nM
